One assay has as its target EGFR1 (HER-1) (Homo sapiens (Human), UniProt P00533). The assay can be described thus: EGFR1 (HER-1) enzyme assay, fluorescence polarization. The note with it: 100 μM ATP, poly(Glu, Tyr) substrate. Type of assay: biochemical. Background: Polarisation of emitted light reports the rotation of a fluorescent probe.
Assay [1] has as its system colon and rectal cancer cell line, SW-620. In words: Inhibitory effect on growth of cancer cell line SW-620, SRB. Type of assay: cell-based. The settings on record: not having overexpressed EGFR and EGFR2. An excerpt: (§1) A skin cancer cell line, A431 (ATCC: CRL-1555), a breast cancer cell line, SK-Br3 (ATCC: HTB-30), and a colon and rectal cancer cell line, SW-620 (ATCC: CCL-227) were used to test the degrees of cancer cell growth inhibition using a culture medium, DEME (Dulbecco's Modified Eagle's Medium, JBI) including 4.5 g/l of glucose and 1.5 g/l of sodium bicarbonate and supplemented with 10% FBS (fetal bovine serum, JBI).
(§2) The cancer cell lines stored in a liquid nitrogen tank were each quickly thawed at 37° C., and centrifuged to remove the medium. The resulting cell pellet was mixed with a culture medium, incubated in a culture flask at 37° C. under 5% CO2 for 2 to 3 days, and the medium was removed. The remaining cells were washed with DPBS (Dulbecco's Phosphate Buffered Saline, JBI) and separated from the flask by using Trypsin-EDTA solution, and the separated cells were diluted with a culture medium to a concentration of 1.0×10^6 cells/ml in case of A431 and SW-620, and 2.0×10^6 cells/ml in case of SK-Br3. 100 μl of the diluted cell solution was added to each well of a 96-well plate, which was incubated at 37° C. under 5% CO2 for 1 day.
(§3) In case that the test compound was not soluble in DMSO, a small amount of 1% HCl was added thereto and treated in a 40° C. water bath for 30 mins until complete dissolution was attained. The test compound solution was diluted with a culture medium to a final concentration of 10 μM, and then diluted 10 times serially to 10^−4. The final concentration of DMSO was less than 1%, and the control compounds of Test Example 1 were used at a concentration of 0.0001 to 10 μM.
(§4) The medium was removed from each well of the 96-well microplate, 100 μl of a diluted test compound solution was added to each well holding cultured cells, and the microplate was incubated at 37° C. under 5% CO2 for 72 hours. After removing the medium from the plate, 50 μl of 10% trichloroacetic acid was added to each well, and the plate was kept at 37° C. for 1 hour to fix the cells to the bottom of the plate. 10% trichloroacetic acid was removed from each well, the plate was dried, 100 μl of an SRB (Sulforhodamine-B, Sigma) dye solution was added thereto, and reacted for 10 mins. The SRB dye solution was prepared by dissolving SRB in 1% acetic acid to a concentration of 0.4%. After removing the dye solution, the plate was washed with water, and dried. When the dye solution was not removed by water, 1% acetic acid was used.
(§5) 150 μl of 10 mM trisma base (Sigma) was added to each well, and the absorbance at 570 nm was determined with a microplate reader (Molecular device).

A further assay concerns the target VEGFR2 (KDR) (Homo sapiens (Human), UniProt P35968). In words: VEGFR2 (KDR) enzyme assay, fluorescence polarization. It counts as biochemical. The note with it: 5 μM ATP, poly(Glu, Tyr) substrate. How it is done: VEGFR2 (KDR, Proquinase) enzyme assay (auto-phosphorylation assay) was carried out by using Tyrosine Kinase Assay Kit Green (Panvera). The entire assay was conducted in accordance with VEGFR PTK inhibitor cellular activity test S.O.P.
A typical kinase inhibition reaction requires a protein tyrosine kinase, a suitable buffer solution system, a peptide substrate and ATP. In the present VEGFR tyrosine kinase assay, a buffer solution system containing 20 mM HEPES (pH 7.4), 5 mM MgCl2 and 2 mM MnCl2; 50 μM Na3VO4; 200 ng/10 μl VEGFR (Proquinase); 5 μM ATP; and 10 ng/ml poly(Glu, Tyr) (4:1, Sigma) as a substrate were used.
The compounds of Test Example 1 were used as control compounds at a concentration of 0.0001 to 10 μM. After 10 min, 10 μl of poly(Glu, Tyr) as a substrate was added to each well, and 10 μl of ATP was added thereto to initiate kinase reaction. The plate was incubated at room temperature for 1 hour, and 10 μl of 100 mM EDTA was added to each well to terminate the kinase reaction.
The added EDTA was mixed for 5 min. Thereafter, 10 μl of 10× anti-phosphotyrosine antibody (Panvera), 10 μl of 10×PTK Green Tracer (Panvera) and 30 μl of FP dilution buffer (Panvera) were added thereto, and the plate was incubated in a dark room at room temperature for 30 min.

Assay [2] relates to breast cancer cell line, SK-Br3. The assay can be described thus: Inhibitory effect on growth of cancer cell line SK-Br3, SRB. It counts as cell-based. The settings on record: overexpressed EGFR2 (HER-2).
Description: as §1, §2, §3, §4, §5

Assay [3] relates to skin cancer cell line, A431. In words: Inhibitory effect on growth of cancer cell line A431, SRB. It counts as cell-based. The note with it: overexpressed EGFR1 (HER-1).
Description: as §1, §2, §3, §4, §5

The subject of assay [4] is Human Umbilical Vein Endothelial Cell (HUVEC). In words: Inhibitory effect on growth of human umbilical vein endothelial cell (HUVEC), MTS. It counts as cell-based. The settings on record: 10 ng/ml VEGF, absorbance 490 nm. The procedure: HUVECs (Young Science, Inc) were suspended in a culture medium, EBM-2 (Endothelial Basic Media, Cambrex) supplemented with 2% bovine serum (Cambrex) and auxiliary additives for HUVEC culture (e.g., EGF, VEGF, FGF, etc., Cambrex), inoculated into a culture flask coated with 1% gelatin, and incubated in an incubator at 37° C. under 5% CO2 and 100% humidity.
100 μl of 5% bovine serum medium containing 10 ng/ml of vascular endothelial growth factor (VEGF) and auxiliary additives, while excluding other growth factors was added to each well of a 96-well plate. […] DMSO (Dimethylsulfoxide) was used to dissolve the test compounds, and the final concentration of DMSO was less than 1%.
100 μl of the diluted cell solution was added to each well of the 96-well plate, which was incubated in an incubator for 96 hours.
Then, 20 μl of MTS ([…], Promega) solution was added to each well of the plate, and the plate was incubated in an incubator for 4 hours to induce discoloration. After 4 hours, the pellets were dissolved by way of a thorough shaking, and the absorbance at 490 nm was determined.

IC50 data for 13 molecules are collected here from patent US8846699B2, “Quinazoline derivatives as a multiplex inhibitor and method for the preparation thereof” (Hanmi Pharm. Co., Ltd., priority 2005, dated 2014).

A word on the IC50: it is the concentration that inhibits the measured activity by half. High values mean weaker potency in that assay, low ones greater potency in that assay.

Chain of VEGFR2 (KDR) (P35968 20-1356): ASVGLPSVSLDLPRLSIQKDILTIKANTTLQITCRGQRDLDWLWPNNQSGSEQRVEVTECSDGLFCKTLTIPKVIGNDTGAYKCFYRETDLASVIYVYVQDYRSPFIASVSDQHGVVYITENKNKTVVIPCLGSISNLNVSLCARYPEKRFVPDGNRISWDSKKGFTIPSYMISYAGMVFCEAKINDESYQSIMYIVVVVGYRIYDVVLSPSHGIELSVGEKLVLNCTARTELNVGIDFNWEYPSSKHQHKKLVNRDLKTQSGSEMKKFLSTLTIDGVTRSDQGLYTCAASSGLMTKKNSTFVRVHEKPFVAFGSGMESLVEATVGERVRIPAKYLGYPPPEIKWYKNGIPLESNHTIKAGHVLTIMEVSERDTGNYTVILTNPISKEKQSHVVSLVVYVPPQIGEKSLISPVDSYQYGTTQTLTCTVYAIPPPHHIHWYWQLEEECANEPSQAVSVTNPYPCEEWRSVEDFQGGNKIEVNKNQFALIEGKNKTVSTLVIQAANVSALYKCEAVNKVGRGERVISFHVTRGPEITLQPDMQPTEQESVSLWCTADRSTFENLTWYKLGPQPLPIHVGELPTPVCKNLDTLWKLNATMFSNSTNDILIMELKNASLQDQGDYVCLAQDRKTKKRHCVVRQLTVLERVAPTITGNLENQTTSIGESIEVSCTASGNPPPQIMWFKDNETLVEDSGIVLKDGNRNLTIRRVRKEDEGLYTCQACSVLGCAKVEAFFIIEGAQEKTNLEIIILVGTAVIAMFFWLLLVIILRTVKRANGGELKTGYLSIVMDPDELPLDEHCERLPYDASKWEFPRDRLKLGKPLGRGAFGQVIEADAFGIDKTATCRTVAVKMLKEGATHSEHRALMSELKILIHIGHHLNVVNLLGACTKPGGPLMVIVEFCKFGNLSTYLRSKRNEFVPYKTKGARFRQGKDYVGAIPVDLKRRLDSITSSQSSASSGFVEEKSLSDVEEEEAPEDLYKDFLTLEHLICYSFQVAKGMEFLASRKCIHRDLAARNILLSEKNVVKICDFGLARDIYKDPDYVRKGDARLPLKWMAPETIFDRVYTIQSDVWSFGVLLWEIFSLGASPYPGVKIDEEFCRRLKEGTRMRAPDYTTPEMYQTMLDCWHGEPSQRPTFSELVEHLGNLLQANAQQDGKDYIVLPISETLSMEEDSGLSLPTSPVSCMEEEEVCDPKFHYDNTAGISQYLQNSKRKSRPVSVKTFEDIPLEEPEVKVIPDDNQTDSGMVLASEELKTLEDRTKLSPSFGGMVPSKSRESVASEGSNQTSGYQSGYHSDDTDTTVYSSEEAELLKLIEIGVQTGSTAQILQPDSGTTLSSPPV
Chain of EGFR1 (HER-1) (P00533 25-1210): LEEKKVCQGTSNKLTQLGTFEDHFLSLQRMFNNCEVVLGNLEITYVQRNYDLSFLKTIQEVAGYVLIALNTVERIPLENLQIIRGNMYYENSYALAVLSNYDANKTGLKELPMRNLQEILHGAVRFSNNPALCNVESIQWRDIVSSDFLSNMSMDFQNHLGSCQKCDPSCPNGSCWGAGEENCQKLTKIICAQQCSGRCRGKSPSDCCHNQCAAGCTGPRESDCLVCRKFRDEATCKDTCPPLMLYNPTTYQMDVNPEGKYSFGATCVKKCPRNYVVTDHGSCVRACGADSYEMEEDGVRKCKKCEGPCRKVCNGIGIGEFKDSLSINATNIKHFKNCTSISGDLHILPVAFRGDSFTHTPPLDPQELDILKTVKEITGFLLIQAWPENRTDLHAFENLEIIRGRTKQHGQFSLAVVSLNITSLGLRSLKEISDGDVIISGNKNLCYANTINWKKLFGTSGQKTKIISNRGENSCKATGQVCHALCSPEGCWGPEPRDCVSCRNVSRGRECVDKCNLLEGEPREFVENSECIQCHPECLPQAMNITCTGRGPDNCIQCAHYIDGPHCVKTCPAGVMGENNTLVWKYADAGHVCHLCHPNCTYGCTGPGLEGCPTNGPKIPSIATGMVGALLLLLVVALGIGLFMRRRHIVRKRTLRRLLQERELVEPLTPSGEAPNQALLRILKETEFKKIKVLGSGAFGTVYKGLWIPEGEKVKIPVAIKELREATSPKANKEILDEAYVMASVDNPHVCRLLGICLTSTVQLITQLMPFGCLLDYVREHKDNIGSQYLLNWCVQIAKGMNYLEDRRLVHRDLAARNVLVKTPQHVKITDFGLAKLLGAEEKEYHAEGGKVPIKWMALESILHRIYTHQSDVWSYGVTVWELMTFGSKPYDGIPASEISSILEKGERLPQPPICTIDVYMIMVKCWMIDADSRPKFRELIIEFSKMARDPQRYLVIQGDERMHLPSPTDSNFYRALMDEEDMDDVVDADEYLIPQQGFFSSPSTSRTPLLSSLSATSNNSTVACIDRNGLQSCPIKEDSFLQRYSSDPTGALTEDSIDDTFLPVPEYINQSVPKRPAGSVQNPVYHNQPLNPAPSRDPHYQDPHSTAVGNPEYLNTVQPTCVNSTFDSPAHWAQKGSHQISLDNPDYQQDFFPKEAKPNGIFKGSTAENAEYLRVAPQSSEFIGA

As to `C=CC(=O)Nc1cc2c(Nc3ccc(Br)cc3F)ncnc2cc1OCCNC(=O)C(F)(F)F` [Example 28, N-[4-(4-bromo-2-fluoro-phenylamino)-7-[2-(2,2,2-trifluoro-acetylamino)-ethoxy]-quinazolin-6-yl]-acrylamide], the IC50 on EGFR1 (HER-1) came out at 23 nM; in assay [1] (Homo sapiens, 72 h), 9680 nM; on VEGFR2 (KDR), 500 nM; in assay [2] (Homo sapiens, SK-BR-3, 72 h), 233 nM; in assay [3] (Homo sapiens, A-431, 72 h) it was 76 nM; in assay [4] (Homo sapiens, 96 h), 977 nM.

For the molecule `C=CC(=O)Nc1cc2c(Nc3ccc(Br)c(Cl)c3F)ncnc2cc1OC[C@@H](C)NC(=O)CN(C)C` [Example 159], the IC50 worked out at 286 nM at EGFR1 (HER-1); 6650 nM in assay [1] (72 hours); 419 nM against VEGFR2 (KDR); 162 nM in assay [2] (72 hours); 254 nM in assay [3] (72 hours); 423 nM in assay [4] (96 hours).

Take `C=CC(=O)Nc1cc2c(Nc3ccc(Br)cc3F)ncnc2cc1OCCNC(=O)CC` [Example 27, N-[4-(4-bromo-2-fluoro-phenylamino)-7-(2-propionylamino-ethoxy)-quinazolin-6-yl]-acrylamide]: the IC50 turned out to be 3 nM against EGFR1 (HER-1); 9560 nM in assay [1] (Homo sapiens, 72 h); 250 nM against VEGFR2 (KDR); 50 nM in assay [2] (Homo sapiens, SK-BR-3, 72 h); 30 nM in assay [3] (Homo sapiens, A-431, 72 h); 96 nM in assay [4] (Homo sapiens, 96 h).

As for `C=CC(=O)Nc1cc2c(Nc3ccc(Br)cc3F)ncnc2cc1OCCNC(=S)NCC` [Example 36, N-{4-(4-bromo-2-fluoro-phenylamino)-7-[2-(3-ethyl-thioureido)-ethoxy]-quinazolin-6-yl}-acrylamide], the 50% inhibitory concentration (IC50) against EGFR1 (HER-1) came to 91 nM; in assay [1] (Homo sapiens, 72 h), 722 nM; against VEGFR2 (KDR) it was 354 nM; in assay [2] (Homo sapiens, SK-BR-3, 72 h), 43 nM; in assay [3] (Homo sapiens, A-431, 72 h), 89 nM; in assay [4] (Homo sapiens, 96 h), 389 nM.

Take `C=CC(=O)Nc1cc2c(Nc3ccc(Br)cc3F)ncnc2cc1OCCNC(=O)CN1CCCCC1` [Example 101, N-{4-(4-bromo-2-fluoro-phenylamino)-7-[2-(2-piperidin-1-yl-acetylamino)-ethoxy]-quinazolin-6-yl}-acrylamide]: the IC50 against EGFR1 (HER-1) was determined as 7 nM; in assay [1] (Homo sapiens, 72 h), 2920 nM; on VEGFR2 (KDR), 857 nM; in assay [2] (Homo sapiens, SK-BR-3, 72 h), 76 nM; in assay [3] (Homo sapiens, A-431, 72 h) it was 8 nM; in assay [4] (Homo sapiens, 96 h), 964 nM.

“N-{2-[6-acryloylamino-4-(4-bromo-2-fluoro-phenylamino)-quinazolin-7-yloxy]-ethyl}-malonic acid ethylester [Example 69]”: the IC50 in assay [1] (72 hours) was determined as 10000 nM; on VEGFR2 (KDR), 985 nM; in assay [2] (72 hours), 654 nM; in assay [3] (72 hours) it was 238 nM; in assay [4] (96 hours) it was 954 nM.

Consider `C=CC(=O)Nc1cc2c(Nc3ccc(Br)cc3F)ncnc2cc1OCCNC(=O)CCN` [Example 62, N-[7-[2-(3-amino-propionylamino)-ethoxy]-4-(4-bromo-2-fluoro-phenylamino)-quinazolin-6-yl]-acrylamide], for which the IC50 in assay [1] (Homo sapiens, 72 h) amounted to 724 nM; against VEGFR2 (KDR) it was 749 nM; in assay [2] (Homo sapiens, SK-BR-3, 72 h), 369 nM; in assay [4] (Homo sapiens, 96 h), 697 nM.

As for `C=CC(=O)Nc1cc2c(Nc3ccc(Br)cc3F)ncnc2cc1OCCNS(C)(=O)=O` [Example 33, N-[4-(4-bromo-2-fluoro-phenylamino)-7-(2-methanesulfonylamino-ethoxy)-quinazolin-6-yl]-acrylamide], the IC50 in assay [1] (Homo sapiens, 72 h) was 10000 nM; against VEGFR2 (KDR), 369 nM; in assay [2] (Homo sapiens, SK-BR-3, 72 h) it was 167 nM; in assay [3] (Homo sapiens, A-431, 72 h) it was 34 nM; in assay [4] (Homo sapiens, 96 h), 390 nM.

Consider `C=CC(=O)Nc1cc2c(Nc3ccc(Br)cc3F)ncnc2cc1OCCNC(=O)C(CO)N(C)C` (stereo not drawn) [Example 162, N-{4-(4-bromo-2-fluoro-phenylamino)-7-[2-(2-dimethylamino-3-hydroxy-propionylamino)-ethoxy]-quinazolin-6-yl}-acrylamide], for which the IC50 in assay [1] (Homo sapiens, 72 h) turned out to be 10000 nM; on VEGFR2 (KDR), 797 nM; in assay [2] (Homo sapiens, SK-BR-3, 72 h), 141 nM; in assay [3] (Homo sapiens, A-431, 72 h), 154 nM; in assay [4] (Homo sapiens, 96 h), 882 nM.

Turning to `C=CC(=O)Nc1cc2c(Nc3ccc(Br)cc3F)ncnc2cc1OCCNC(=O)c1ccc[nH]1` [Example 99, 1H-pyrrole-2-carboxylic acid {2-[6-acryloylamino-4-(4-bromo-2-fluoro-phenylamino)-quinazolin-7-yloxy]-ethyl}-amide], the IC50 in assay [1] (Homo sapiens, 72 h) came out at 10000 nM; at VEGFR2 (KDR) it was 997 nM; in assay [2] (Homo sapiens, SK-BR-3, 72 h), 3310 nM; in assay [3] (Homo sapiens, A-431, 72 h), 408 nM; in assay [4] (Homo sapiens, 96 h), 989 nM.

Regarding `C=CC(=O)Nc1cc2c(Nc3cc(C(=O)NOC)c(Br)cc3F)ncnc2cc1OCCNC(C)=O` [Example 131, 5-[7-(2-acetylamino-ethoxy)-6-acryloylamino-quinazolin-4-ylamino]-2-bromo-4-fluoro-N-methoxy-benzamide], the IC50 was found to be 756 nM on VEGFR2 (KDR) and 965 nM in assay [4] (Homo sapiens, 96 h).

Take `C=CC(=O)Nc1cc2c(Nc3ccc(Cl)cc3F)ncnc2cc1OCCNC(C)=O` [Example 112, N-[7-(2-acetylamino-ethoxy)-4-(4-chloro-2-fluoro-phenylamino)-quinazolin-6-yl]-acrylamide]: the IC50 in assay [1] (Homo sapiens, 72 h) is 9560 nM; against VEGFR2 (KDR) it was 114 nM; in assay [2] (Homo sapiens, SK-BR-3, 72 h), 100 nM; in assay [3] (Homo sapiens, A-431, 72 h), 19 nM; in assay [4] (Homo sapiens, 96 h) it was 189 nM.

As for `C=CC(=O)Nc1cc2c(Nc3c(F)cc(Br)cc3F)ncnc2cc1OCCNC(C)=O` [Example 120, N-[7-(2-acetylamino-ethoxy)-4-(4-bromo-2,6-difluoro-phenylamino)-quinazolin-6-yl]-acrylamide], the IC50 in assay [1] (Homo sapiens, 72 h) is 10000 nM; on VEGFR2 (KDR) it was 127 nM; in assay [2] (Homo sapiens, SK-BR-3, 72 h), 186 nM; in assay [3] (Homo sapiens, A-431, 72 h), 26 nM; in assay [4] (Homo sapiens, 96 h) it was 269 nM.
